Source: the NIST ThermoML archive (doi:10.1021/acs.jced.8b01008)

Conditions: 100 kPa, Liquid, Falling or rolling sphere viscometry

O [water]
Conditions | viscosity [mPa·s]
288.15 K | 1.122
293.15 K | 0.99
298.15 K | 0.882
303.15 K | 0.793
308.15 K | 0.719
313.15 K | 0.656
318.15 K | 0.602
